Test results: patent publication US20050250822A1, “Substituted benzanilide compound and noxious organism controlling agent” (priority 2002, published 2005)

Assays:
[1] = test system: Common cutworms (Spodoptera litura) with second instar larvae; test: Insecticidal test against common cutworm (leaf dip); type: in vivo; settings: foliar, 144 h, chemical solution 100 ppm, leaf dip, 25° C., dead insects counted after 6 days, read-out: insecticidal rate (rate of dead insects)
Description: Insecticidal Test Against Common Cutworm
(§1) A 10% emulsifiable concentrate (depending on the compounds, 25% wettable powder was applied for the test) of the compound of the present invention was diluted with water containing a spreading agent to prepare a chemical solution with a concentration of 100 ppm. To the chemical solution was dipped leaves of Chinese olive for about 10 seconds, and after air-drying, they were placed in a laboratory dish, then, 10 Common cutworms (Spodoptera litura) with second instar larvae per the dish were released therein, and the dish was covered with a lid having holes and contained at a thermostat chamber at 25° C. A number of dead insect(s) after 6 days was counted and a rate of dead insects was calculated by the following calculation formula. Incidentally, the test was carried out with two districts. Rate of dead insects (%)=(Number of dead insects/Number of released insects)×100

[2] = test system: diamondback moths (Plutella xylostella) with second instar larvae; test: Insecticidal test against diamondback moth (leaf dip); type: in vivo; settings: foliar, 144 h, chemical solution 100 ppm, leaf dip, 25° C., dead insects counted after 6 days, read-out: insecticidal rate (rate of dead insects)
Description: Insecticidal Test Against Diamondback Moth
as §1, with “diamondback moths (Plutella xylostella)” for “Common cutworms (Spodoptera litura)”, “in” for “by”, “same manner as in Test Example 1.” for “following calculation formula.”, “districts.” for “districts. Rate of dead insects (%)=(Number of dead insects/Number of released insects)×100”

SMILES	pest or weed control at 100 ppm [1] [%]	pest or weed control at 100 ppm [2] [%]
Cc1cc(C2(C(F)(F)F)CC(c3ccc(C#N)cc3)=NO2)ccc1NC(=O)c1cccc(I)c1C(=O)NC(C)C (centres unmarked) [2-046, N^1-[4-[3-(4-cyanophenyl)-5-trifluoromethyl-4,5-dihydroisoxazol-5-yl]-2-methylphenyl]-3-iodo-N^2-isopropylphthalic diamide]	≥ 80	≥ 80
Cc1cc(C2(C(F)(F)F)CC(n3cncn3)=NO2)ccc1NC(=O)c1cccc(I)c1C(=O)NC(C)C (centres unmarked) [1-032, 3-Iodo-N^2-isopropyl-N^1-[4-[3-(1,2,4-triazol-1-yl)-5-trifluoromethyl-4,5-dihydroisoxazol-5-yl]-2-methylphenyl]phthalic diamide]	≥ 80	≥ 80
Cc1cc(C2(C(F)(F)F)CC(c3ccc(F)cc3)=NO2)ccc1NC(=O)c1cccc(N)c1C(=O)NC(C)C (centres unmarked) [2-170, 3-Amino-N^1-[4-[3-(4-fluorophenyl)-5-trifluoromethyl-4,5-dihydroisoxazol-5-yl]-2-methylphenyl]-N^2-isopropylphthalic diamide]	≥ 80	≥ 80
Cc1cc(C2(C(F)(F)F)CN=C(c3ccc(Cl)cc3)S2)ccc1NC(=O)c1cccc(I)c1C(=O)NC(C)C (centres unmarked) [4-04, N^1-[4-[2-(4-chlorophenyl)-5-trifluoromethyl-4,5-dihydrothiazol-5-yl]-2-methylphenyl]-3-iodo-N^2-isopropylphthalic diamide]	≥ 80	≥ 80
